Experimental data taken from publication PMC3041981 (ACS medicinal chemistry letters, 2010).
Where two headings read alike, the source gives them in different places.

Key:
[1] = test system: locomotor activity in mice; test: Locomotor stimulant activity in mice; format: in vivo; conditions: for Time course of locomotor stimulant effect after injection: 30-min period at the start of each of four hours after administration
DAT = DAT (Rattus norvegicus, UniProt P23977); test: DAT binding in rat brain membranes
SERT = SERT (Rattus norvegicus, UniProt P31652); test: SERT binding in rat brain membranes; conditions: SERT versus DAT and NET binding
Chain of SERT (P31652 whole entry): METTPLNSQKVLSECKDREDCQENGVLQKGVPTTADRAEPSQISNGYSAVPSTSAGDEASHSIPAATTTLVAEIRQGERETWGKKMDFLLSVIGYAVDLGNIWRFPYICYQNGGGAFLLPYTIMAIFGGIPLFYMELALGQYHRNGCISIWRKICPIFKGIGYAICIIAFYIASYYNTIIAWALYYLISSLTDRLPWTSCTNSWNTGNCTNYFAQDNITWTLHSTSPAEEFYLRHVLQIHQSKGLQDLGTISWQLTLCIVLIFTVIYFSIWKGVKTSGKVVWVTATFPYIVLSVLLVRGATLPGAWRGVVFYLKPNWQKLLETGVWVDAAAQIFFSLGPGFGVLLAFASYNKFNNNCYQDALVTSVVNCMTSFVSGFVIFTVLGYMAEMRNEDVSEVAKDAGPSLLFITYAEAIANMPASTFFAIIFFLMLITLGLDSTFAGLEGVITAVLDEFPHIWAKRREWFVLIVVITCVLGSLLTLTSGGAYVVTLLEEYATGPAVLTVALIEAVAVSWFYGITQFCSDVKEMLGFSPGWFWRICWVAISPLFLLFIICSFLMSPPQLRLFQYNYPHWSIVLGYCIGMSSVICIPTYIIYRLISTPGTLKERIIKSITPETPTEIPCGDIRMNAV

Chain of DAT (P23977 whole entry): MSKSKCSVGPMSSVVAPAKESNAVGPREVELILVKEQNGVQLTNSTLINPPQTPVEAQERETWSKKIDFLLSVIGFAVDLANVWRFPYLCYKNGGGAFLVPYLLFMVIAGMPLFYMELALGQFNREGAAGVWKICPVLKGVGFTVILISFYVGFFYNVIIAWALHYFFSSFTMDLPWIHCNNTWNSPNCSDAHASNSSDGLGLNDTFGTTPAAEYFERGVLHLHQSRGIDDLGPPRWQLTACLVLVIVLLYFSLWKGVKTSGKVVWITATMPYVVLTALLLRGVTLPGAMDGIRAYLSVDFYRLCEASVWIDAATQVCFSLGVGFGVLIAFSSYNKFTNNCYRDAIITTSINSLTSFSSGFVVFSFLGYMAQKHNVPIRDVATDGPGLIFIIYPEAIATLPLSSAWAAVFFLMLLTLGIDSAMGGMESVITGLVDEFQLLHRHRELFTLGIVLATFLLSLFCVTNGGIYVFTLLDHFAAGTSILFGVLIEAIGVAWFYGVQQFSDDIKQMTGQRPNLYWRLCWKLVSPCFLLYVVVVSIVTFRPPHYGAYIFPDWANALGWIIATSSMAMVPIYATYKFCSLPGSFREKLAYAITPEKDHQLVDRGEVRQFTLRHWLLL

## NC(=O)C[S+]([O-])C(c1ccccc1)c1ccccc1 (racemic) [(±)-1, 2-[(diphenylmethyl)sulfinyl]acetamide]
[1]
  Time course of locomotor stimulant effect after injection: evident up to four hours after injection

## [O-][S+](CCNCCCc1ccccc1)C(c1ccccc1)c1ccccc1 (stereo not shown) [9a]
DAT
  DAT binding affinity, comparison in words: most potent DAT analogue in the series

## CN(C)CC[S+]([O-])C(c1ccc(Cl)cc1)c1ccc(Cl)cc1 (stereo not shown) [9d]
SERT
  Transporter selectivity in words: SERT-selective

## NC(=O)C[S@+]([O-])C(c1ccccc1)c1ccccc1 [(+)-1]
[1]
  Time course of locomotor stimulant effect after injection: evident up to four hours after injection

## NC(=O)C[S@@+]([O-])C(c1ccccc1)c1ccccc1 [(−)-1]
DAT; rat brain membranes, within the series
  DAT binding affinity, comparison in words: slightly higher affinity than the S
[1]
  Time course of locomotor stimulant effect after injection: evident up to four hours after injection

## COC(=O)[C@H]1[C@@H](OC(=O)c2ccccc2)C[C@@H]2CC[C@H]1N2C [cocaine]
[1]; after injection, 6 mice per point, maximal effect compared with cocaine
  Effect on locomotor activity (horizontal activity counts): greatest among the drugs
